pIC50: −log10 of the molar value.
Assay: In vitro inhibition of human platelet aggregation induced by SFLLRN-NH2 (at a concentration of 2 uM)

Point of comparison: `COc1ccc(C[C@H](NC(=O)Nc2ccc3c(CN4CCC4)cn(Cc4ccc(F)cc4)c3c2)C(=O)N[C@@H](CCCNC(=N)N)C(=O)NCc2ccccc2)cc1` [(S)-2-[(S)-2-{3-[3-Azetidin-1-ylmethyl-1-(4-fluoro-benzyl)-1H-indol-6-yl]-ureido}-3-(4-methoxy-phenyl)-propionylamino]-5-guanidino-pentanoic acid benzylamide], pIC50 6.40. Against it:
- NC(=O)NCCCC(NC(=O)[C@H](Cc1ccc(F)c(F)c1)NC(=O)Nc1ccc2c(CN3CCCC3)cn(Cc3c(Cl)cccc3Cl)c2c1)C(=O)NCc1ccccc1 (stereo partly drawn) [2-[(S)-2-{3-[1-(2,6-Dichloro-benzyl)-3-pyrrolidin-1-ylmethyl-1H-indol-6-yl]-ureido}-3-(3,4-difluoro-phenyl)-propionylamino]-5-ureido-pentanoic acid benzylamide] — within 0.2 log units, 6.52
- NC(=O)CCC(NC(=O)[C@H](Cc1ccc(F)c(F)c1)NC(=O)Nc1ccc2c(CN3CCCC3)cn(Cc3c(Cl)cccc3Cl)c2c1)C(=O)NCc1ccccc1 (stereo partly drawn) [2-[(S)-2-{3-[1-(2,6-Dichloro-benzyl)-3-pyrrolidin-1-ylmethyl-1H-indol-6-yl]-ureido}-3-(3,4-difluoro-phenyl)-propionylamino]-pentanedioic acid 5-amide 1-benzylamide] — 0.70 log units lower, 5.70
- N#Cc1ccc(C[C@H](NC(=O)Nc2ccc3c(CN4CCCC4)cn(Cc4c(Cl)cccc4Cl)c3c2)C(=O)N[C@@H](CCCNC(=N)N)C(=O)NCc2ccccc2)cc1 [(S)-2-((S)-3-(4-Cyano-phenyl)-2-{3-[1-(2,6-dichloro-benzyl)-3-pyrrolidin-1-ylmethyl-1H-indol-6-yl]-ureido}-propionylamino)-5-guanidino-pentanoic acid benzylamide] — 0.75 log units higher, 7.15
- COc1ccc(C[C@H](NC(=O)Nc2ccc3c(CN4CCCCC4)cn(Cc4ccc(F)cc4)c3c2)C(=O)N[C@@H](CCCNC(=N)N)C(=O)NCC2CCCCC2)cc1 [(S)-2-[(S)-2-{3-[1-(4-Fluoro-benzyl)-3-piperidin-1-ylmethyl-1H-indol-6-yl]-ureido}-3-(4-methoxy-phenyl)-propionylamino]-5-guanidino-pentanoic acid cyclohexylmethyl-amide] — 0.40 log units lower, 6.00
- NCCC[C@H](NC(=O)[C@H](Cc1ccc(F)c(F)c1)NC(=O)Nc1ccc2c(CN3CCCC3)cn(Cc3c(Cl)cccc3Cl)c2c1)C(=O)NCc1ccccc1 [(S)-5-Amino-2-[(S)-2-{3-[1-(2,6-dichloro-benzyl)-3-pyrrolidin-1-ylmethyl-1H-indol-6-yl]-ureido}-3-(3,4-difluoro-phenyl)-propionylamino]-pentanoic acid benzylamide] — 0.60 log units higher, 7.00
- COc1ccc(C[C@H](NC(=O)Nc2ccc3c(CN4CCCC4)cn(Cc4ccccc4C)c3c2)C(=O)N[C@@H](CCCNC(=N)N)C(=O)NCCCc2ccccc2)cc1 [(S)-5-Guanidino-2-((S)-3-(4-methoxy-phenyl)-2-{3-[1-(2-methyl-benzyl)-3-pyrrolidin-1-ylmethyl-1H-indol-6-yl]-ureido}-propionylamino)-pentanoic acid (3-phenyl-propyl)-amide] — 0.30 log units higher, 6.70
- COc1ccc(C[C@H](NC(=O)Nc2ccc3c(CN4CCCC4)cn(Cc4ccc(OC(F)(F)F)cc4)c3c2)C(=O)N[C@@H](CCCNC(=N)N)C(=O)NCC2CCCCC2)cc1 [(S)-5-Guanidino-2-((S)-3-(4-methoxy-phenyl)-2-{3-[3-pyrrolidin-1-ylmethyl-1-(4-trifluoromethoxy-benzyl)-1H-indol-6-yl]-ureido}-propionylamino)-pentanoic acid cyclohexylmethyl-amide] — 1.08 log units lower, 5.32
- NCC(NC(=O)[C@H](Cc1ccc(F)c(F)c1)NC(=O)Nc1ccc2c(CN3CCCC3)cn(Cc3c(Cl)cccc3Cl)c2c1)C(=O)NCc1ccccc1 (stereo partly drawn) [(S)-N-(2-Amino-1-benzylcarbamoyl-ethyl)-2-{3-[1-(2,6-dichloro-benzyl)-3-pyrrolidin-1-ylmethyl-1H-indol-6-yl]-ureido}-3-(3,4-difluoro-phenyl)-propionamide] — within 0.2 log units, 6.30

— BindingDB's records for doi:10.1016/s0960-894x(01)00378-x (The R. W. Johnson Pharmaceutical Research Institute, 2001)
